Data from PMC7504360 (International Journal of Molecular Sciences, 2020).
Square brackets hold non-standard residues; d marks the D form. Peptide text beside a SMILES is read from it.

Columns and labels:
[1] = LPS neutralization, limulus amebocyte lysate (LAL) assay; assay type: biochemical, Escherichia coli O111:B4; conditions: 50 μM peptide, 20 ng/mL LPS, 30 min at 37 °C, LAL chromogenic kit, 405 nm; triplicate
Description: The LPS-neutralizing activity of all peptides was determined using the Pierce LAL chromogenic endotoxin quantitation kit (ThermoFisher Scientific, MA, USA). All peptides including standard (Polymixin B) at varying concentrations (3.12, 6.25, 12.5, 25, and 50 μM in endotoxin-free water) were allowed to bind with 20 ng/mL of LPS in a 96-well plate for 30 min at 37 °C. To this, an equal volume (10 μL) of LAL reagent was added and incubated for 10 min at 37 °C and then 20μL of LAL chromogenic substrate was added. After 15 min incubation at 37 °C, the reaction was stopped by 25% acetic acid and the reduction in yellow color formation due to the substrate was measured at 405 nm on an absorbance microplate reader. The experiment was conducted in triplicate, and the changes in absorbance due to peptide-LPS interaction are indicated as percent LPS neutralization.

[2] = system: chymotrypsin; test: Protease stability assay (antimicrobial activity after protease digestion); assay type: in vitro ADME; conditions: peptide–enzyme 10,000:1, PBS, 6 h at 37 °C preincubation, then E. coli and A. baumannii, 16 h at 37 °C, 600 nm, repeated three times
Description: (§1) For stability analysis, all Pro-peptides at their MICs were incubated with trypsin and chymotrypsin at the ratio of 10,000:1 (peptide–enzyme) in PBS for 6 h at 37 °C. After incubation, 100 μL of peptide-protease mixture was added to the 100 μL bacterial suspension (E. coli and A. baumannii, 2 × 10^5 CFU/mL) and further incubated for 16 h at 37 °C. Melittin was used as standard peptide, and bacterial suspension without peptide and protease served as control. The experiment was repeated three times, and the extent of bacterial growth was measured at 600 nm using a microplate reader.

[3] = system: trypsin; test: as above; assay type: in vitro ADME; conditions: peptide–enzyme 10,000:1, PBS, 6 h at 37 °C preincubation, then E. coli and A. baumannii, 16 h at 37 °C, 600 nm, repeated three times
Description: as §1

[4] = system: LPS-stimulated RAW264.7 cells; test: Nitrite (NO) production, Griess assay; assay type: cell-based, mouse; conditions: 25 μM, 1 h pretreatment, LPS 20 ng/mL for 16 h
Description: (§2) The presence of nitrite in culture media strongly validates the indication of NO production which was assessed by Griess assay. Briefly, RAW264.7 cell (1 × 10^5) were seeded in s 96-well plate in triplicate. Peptides (1, 5, 25, and 50 μM) were pretreated 1 h and then stimulated with 20 ng/mL of LPS purified from E. coli O111:B4 (Sigma-Aldrich, St. Louis, MO, USA) for 16 h. After incubation, equal volumes of culture media and Griess reagent were added and color change was read at 540 nm. The concentration of nitrite content was assessed using a standard curve of sodium nitrite. In addition, release of inflammatory cytokines including TNF-α and IL-6 in the culture media was quantified using an enzyme-linked immunosorbent assays kit (ELISA; R&D Systems, Minneapolis, MN, USA) and the assay was performed according to the kit protocol. The assay was conducted in triplicate, and the concentrations of TNF-α and IL-6 were evaluated by measuring the absorbance at 450 nm using a microplate reader.

[5] = system: LPS-stimulated RAW264.7 cells; test: IL-6 release, ELISA; assay type: cell-based, mouse; conditions: 25 μM, 1 h pretreatment, LPS 20 ng/mL for 16 h
Description: as §2

[6] = system: TLR4; test: Immunoblot of TLR4 expression; assay type: cell-based, mouse; conditions: 20 μM peptide, LPS 50 ng/mL, RAW264.7 cells
Description: (§3) The protein content of all experimental groups of RAW264.7 cells in triplicate were extracted using radio immunoprecipitation buffer (RIPA) containing protease phosphatase inhibitor. The supernatant was collected by centrifugation (12,000× g) at 4 °C for 20 min and stored at −80 °C until further use. Similarly, cytoplasmic and nuclear fractionation was extracted using an NE-PER Nuclear and Cytoplasmic Extraction Reagents kit (ThermoFisher Scientific, MA, USA), according to the manufacturer’s protocol. Protein contents were quantified using a bicinchoninic acid (BCA) protein assay kit (Thermo Fisher Scientific Inc., MA, USA) and 30 μg (v/v) was electrophoresed by SDS-PAGE using a 10% (w/v) polyacrylamide resolving gel, electro-transferred to a PVDF membrane, and then blocked using 5% (w/v) non-fat milk. The membranes were incubated with primary antibodies (1:1000 dilution) at 4 °C overnight, followed by incubation with their respective secondary antibody for 1 h at room temperature. The antigen-antibody complexes were examined using the WestGlow^TM Chemiluminescent Substrate (Biomax Co., Ltd, Seoul, South Korea) under iBright™ CL1000 Imaging System (Thermo Fisher Scientific Inc., MA, USA). The densitometric analysis of protein signals were quantified using the Image J software (Version 1.52, National Institutes of Health, MD, USA).

[7] = system: MAPK and NF-κB; test: Immunoblot of MAPK (JNK, ERK) phosphorylation and NF-κB nuclear translocation; assay type: cell-based, mouse; conditions: 20 μM peptide, LPS 50 ng/mL, RAW264.7 cells
Description: as §3

[8] = system: ICR mice; test: Cytotoxicity in vivo (serum AST, ALT, BUN); parameters: species or system mouse; conditions: single intraperitoneal dose 1 mg/kg and 5 mg/kg, 24 h, 5 mice/group
Description: A preliminary toxicity study was conducted to determine the cytotoxic effect of Pro10-1 and Pro10-1D on ICR mice. Four-week-old mice (n = 5) were injected intraperitoneally with peptides (1 mg/Kg and 5 mg/Kg, respectively) for 24 h. After treatment, blood was withdrawn and serum was collected and then subjected to AST, ALT, and BUN analyses.

CC[C@@H](C)[C@@H](NC(=O)[C@@H](C)NC(=O)[C@@H](CC(C)C)NC(=O)[C@@H](Cc1c[nH]c2ccccc12)NC(=O)[C@@H](CC(C)C)NC(=O)[C@@H](CCCNC(=N)N)NC(=O)[C@H](N)CCCNC(=N)N)C(=O)N[C@H](Cc1c[nH]c2ccccc12)C(=O)N[C@H](CCCNC(=N)N)C(=O)N[C@H](CCCNC(=N)N)C(N)=O [Pro10-1D] (H-[dR][dR][dL][dW][dL][dA][dI][dW][dR][dR]-NH2; N-terminus assumed)
inhibition of the activation of LPS (LPS neutralization) [1]: 58.45% | protease resistance (retention of bactericidal activity) [2]: substantial protease resistance | protease resistance (retention of bactericidal activity) ([2]; listed as enantiomeric Pro10-1): retained its bactericidal activity | protease resistance (retention of bactericidal activity) [3]: substantial protease resistance | protease resistance (retention of bactericidal activity) ([3]; listed as enantiomeric Pro10-1): retained its bactericidal activity | inhibition of LPS-induced NO (nitrite) level [4]: effective inhibition | inhibition of LPS-induced IL-6 level [5]: effective inhibition | LPS-induced TLR4 expression [6]: effectively suppressed | MAPK and NF-κB proteins [7]: downregulated | AST, ALT, and BUN elevation in serum [8]: did not observe any clinical significance
